For 26 compounds, IC50 results are on record in patent US11827657B2, “Boron containing pyrazole compounds, compositions comprising them, methods and uses thereof” (BOEHRINGER INGELHEIM ANIMAL HEALTH USA INC., priority 2020, dated 2023).

The target of the test is JAK1 (Homo sapiens, UniProt P23458). Put plainly: Biochemical Kinase Assay (JAK), 33P-ATP filter-binding. As to conditions: Biochemical Kinase Inhibition Assay; potency level of IC50; read-out: JAK1 (range). On the procedure: Biochemical Kinase Assay Protocol (JAK) • Reagent: Base Reaction buffer; 20 mM Hepes (pH 7.5), 10 mM MgCl2, 1 mM EGTA, 0.02% Brij™ 35, 0.02 mg/ml BSA, 0.1 mM Na3VO4, 2 mM DTT, 1% DMSO, where required cofactors were added individually to each kinase reaction.
Sequence of JAK1 (P23458 whole entry, species assumed): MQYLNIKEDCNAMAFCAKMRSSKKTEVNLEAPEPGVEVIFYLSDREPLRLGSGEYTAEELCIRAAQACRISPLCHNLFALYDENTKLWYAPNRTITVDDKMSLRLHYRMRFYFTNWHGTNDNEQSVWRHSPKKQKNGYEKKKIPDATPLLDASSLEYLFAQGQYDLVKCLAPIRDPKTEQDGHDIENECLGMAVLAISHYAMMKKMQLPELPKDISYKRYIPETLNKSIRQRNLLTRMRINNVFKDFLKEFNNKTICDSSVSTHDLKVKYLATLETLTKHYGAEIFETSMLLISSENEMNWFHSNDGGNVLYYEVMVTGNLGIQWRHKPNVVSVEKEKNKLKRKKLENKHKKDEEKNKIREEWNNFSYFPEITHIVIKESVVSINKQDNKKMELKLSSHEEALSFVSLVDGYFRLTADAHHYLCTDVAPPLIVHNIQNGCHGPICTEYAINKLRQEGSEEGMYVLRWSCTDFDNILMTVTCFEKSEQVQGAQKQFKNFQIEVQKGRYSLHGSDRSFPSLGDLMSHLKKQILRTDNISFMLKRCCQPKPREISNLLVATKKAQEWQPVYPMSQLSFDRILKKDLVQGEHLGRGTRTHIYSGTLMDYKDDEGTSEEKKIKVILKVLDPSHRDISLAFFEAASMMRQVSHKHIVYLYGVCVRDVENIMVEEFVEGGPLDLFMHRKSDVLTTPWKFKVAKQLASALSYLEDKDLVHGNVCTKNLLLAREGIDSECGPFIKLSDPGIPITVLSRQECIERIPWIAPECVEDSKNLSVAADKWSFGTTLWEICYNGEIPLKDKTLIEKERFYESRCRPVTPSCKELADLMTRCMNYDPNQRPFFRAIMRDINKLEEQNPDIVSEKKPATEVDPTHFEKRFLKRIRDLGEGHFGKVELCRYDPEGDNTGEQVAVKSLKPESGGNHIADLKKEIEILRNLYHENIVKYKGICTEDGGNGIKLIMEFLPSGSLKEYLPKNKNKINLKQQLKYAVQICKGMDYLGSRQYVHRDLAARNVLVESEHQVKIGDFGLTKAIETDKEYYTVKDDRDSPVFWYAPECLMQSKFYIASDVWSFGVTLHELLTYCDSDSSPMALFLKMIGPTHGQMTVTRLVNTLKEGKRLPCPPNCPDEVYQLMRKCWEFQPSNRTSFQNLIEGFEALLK
Reaction Procedure: • 1. Prepared indicated substrate in freshly prepared Base Reaction Buffer • 2. Delivered any required cofactors to the substrate solution above • 3. Delivered indicated kinase into the substrate solution and gently mix • 4. Delivered compounds in DMSO into the kinase reaction mixture by Acoustic technology (Echo550; nanoliter range), incubated for 20 minutes at room temperature • 5. Delivered 33P-ATP into the reaction mixture to initiate the reaction. • 6. Incubated kinase reaction for 2 hours at room temperature • 7. Reactions were spotted onto P81 ion exchange paper • 8. Detected kinase activity by filter-binding method.
Compounds according to the present invention were tested in the Biochemical Kinase Assay Protocol. The results are provided below in Table 1, wherein the potency levels A, B, and C in the columns labeled JAK1 (range) correspond to IC50 as follows: A<10 nM; B=10-50 nM and C>50 nM. The Example Number entries formatted ##a represent stereoisomer one and entries formatted ##b represent stereoisomer two.
Turning to `N#C[C@@H]1CCOC[C@H]1n1cc(C(N)=O)c(Nc2ccc3c(c2)OB(O)C=C3)n1` (relative stereo) [Example 2, 1-[trans-4-cyanotetrahydro-2H-pyran-3-yl]-3-[(2-hydroxy-1,2-benzoxaborinin-7-yl)amino]pyrazole-4-carboxamide], the IC50 is greater than 50 nM.
As for `N#CC1CCOCC1n1cc(C(N)=O)c(Nc2ccc3c(c2)COB3O)n1` (stereo not drawn) [Example 41, 1-(trans-4-cyanotetrahydro-2H-pyran-3-yl)-3-((1-hydroxy-1,3-dihydrobenzo[c][1,2]oxaborol-5-yl)amino)-1H-pyrazole-4-carboxamide], the figure is less than 10 nM.
As for `CC(C)(C)C1=Cc2cc(Nc3nn([C@@H]4COCC[C@H]4C#N)cc3C(N)=O)ccc2OB1O` (relative stereo) [Example 19, 3-[(3-tert-butyl-2-hydroxy-1,2-benzoxaborinin-6-yl)amino]-1-(trans-4-cyanotetrahydro-2H-pyran-3-yl)pyrazole-4-carboxamide], the figure is less than 10 nM; as for `CC1=CB(O)Oc2ccc(Nc3nn(C4COCCC4C#N)cc3C(N)=O)cc21` (single isomer, unassigned) [Example 3a, 1-[trans-4-cyanotetrahydro-2H-pyran-3-yl]-3-[(2-hydroxy-4-methyl-1,2-benzoxaborinin-6-yl)amino]pyrazole-4-carboxamide (stereoisomerone)], less than 10 nM; as for `CC1=C(C)c2cc(Nc3nn([C@@H]4COCC[C@H]4C#N)cc3C(N)=O)cc(C)c2OB1O` (single isomer, unassigned) [Example 23b, 1-[trans-4-cyanotetrahydro-2H-pyran-3-yl]-3-[(2-hydroxy-3,4,8-trimethyl-1,2-benzoxaborinin-6-yl)amino]pyrazole-4-carboxamide], greater than 50 nM.
As for `CC1=Cc2cc(Nc3nn([C@@H]4COCC[C@H]4C#N)cc3C(N)=O)cc(F)c2OB1O` (single isomer, unassigned) [Example 14a, 1-[trans-4-cyanotetrahydro-2H-pyran-3-yl]-3-[(8-fluoro-2-hydroxy-3-methyl-1,2-benzoxaborinin-6-yl)amino]pyrazole-4-carboxamide], the figure is less than 10 nM.
For the compound `CC(C)C1=Cc2cc(Nc3nn([C@@H]4CCCC[C@H]4C#N)cc3C(N)=O)ccc2OB1O` (relative stereo) [Example 49, 1-(trans-2-cyanocyclohexyl)-3-[(2-hydroxy-3-isopropyl-1,2-benzoxaborinin-6-yl)amino]pyrazole-4-carboxamide], the IC50 was less than 10 nM.
As for `CC1=CB(O)Oc2ccc(Nc3nn(C4COCCC4C#N)cc3C(N)=O)cc21` (single isomer, unassigned) [Example 3b, 1-[trans-4-cyanotetrahydropyran-3-yl]-3-[(2-hydroxy-4-methyl-1,2-benzoxaborinin-6-yl)amino]pyrazole-4-carboxamide (stereoisomer two)], the figure is 10 to 50 nM.
As for `CC(C)C1=Cc2cc(Nc3nn([C@@H]4COCC[C@H]4C#N)cc3C(N)=O)ccc2OB1O` (single isomer, unassigned) [Example 48a, 1-(trans-4-cyanotetrahydro-2H-pyran-3-yl)-3-((2-hydroxy-3-isopropyl-2H-benzo[e][1,2]oxaborinin-6-yl)amino)-1H-pyrazole-4-carboxamide], the figure is less than 10 nM; as for `Cc1cc(Nc2nn([C@@H]3CCC[C@H]3C#N)cc2C(N)=O)cc2c1OB(O)C=C2` (relative stereo) [Example 31, 1-(trans-2-cyanocyclopentyl)-3-[(2-hydroxy-8-methyl-1,2-benzoxaborinin-6-yl)amino]pyrazole-4-carboxamide], less than 10 nM; as for `CC(C)C1=CB(O)Oc2ccc(Nc3nn([C@@H]4COCC[C@H]4C#N)cc3C(N)=O)cc21` (single isomer, unassigned) [Example 30a, 1-[trans-4-cyanotetrahydro-2H-pyran-3-yl]-3-[(2-hydroxy-4-isopropyl-1,2-benzoxaborinin-6-yl)amino]pyrazole-4-carboxamide], greater than 50 nM.
As for `N#C[C@@H]1CCC[C@H]1n1cc(C(N)=O)c(Nc2ccc3c(c2)COB3O)n1` (relative stereo) [Example 12, 1-(trans-2-cyanocyclopentyl)-3-((1-hydroxy-1,3-dihydrobenzo[c][1,2]oxaborol-5-yl)amino)-1H-pyrazole-4-carboxamide], the figure is less than 10 nM.
For `N#CC1CCOCC1n1cc(C(N)=O)c(Nc2cc(Cl)c3c(c2)COB3O)n1` (stereo not drawn) [Example 52, 3-((7-chloro-1-hydroxy-1,3-dihydrobenzo[c][1,2]oxaborol-5-yl)amino)-1-(trans-4-cyanotetrahydro-2H-pyran-3-yl)-1H-pyrazole-4-carboxamide], the IC50 was less than 10 nM.
With `CC(C)C1=Cc2cc(Nc3nn([C@@H]4CCC[C@H]4C#N)cc3C(N)=O)ccc2OB1O` (relative stereo) [Example 50, 1-(trans-2-cyanocyclopentyl)-3-[(2-hydroxy-3-isopropyl-1,2-benzoxaborinin-6-yl)amino]pyrazole-4-carboxamide] the figure was less than 10 nM.
As for `N#C[C@@H]1CCCC[C@H]1n1cc(C(N)=O)c(Nc2ccc3c(c2)C=CB(O)O3)n1` (relative stereo) [Example 18, 1-(trans-2-cyanocyclohexyl)-3-[(2-hydroxy-1,2-benzoxaborinin-6-yl)amino]pyrazole-4-carboxamide], the figure is less than 10 nM; as for `N#C[C@@H]1CCOC[C@H]1n1cc(C(N)=O)c(Nc2cc3c(c(C(F)(F)F)c2)OB(O)C=C3)n1` (single isomer, unassigned) [Example 28a, 1-[trans-4-cyanotetrahydro-2H-pyran-3-yl]-3-[[2-hydroxy-8-(trifluoromethyl)-1,2-benzoxaborinin-6-yl]amino]pyrazole-4-carboxamide], greater than 50 nM; as for `N#C[C@@H]1CCOC[C@H]1n1cc(C(N)=O)c(Nc2cc(F)c3c(c2)C=CB(O)O3)n1` (single isomer, unassigned) [Example 44b, 1-[trans-4-cyanotetrahydro-2H-pyran-3-yl]-3-[(8-fluoro-2-hydroxy-1,2-benzoxaborinin-6-yl)amino]pyrazole-4-carboxamide], less than 10 nM.
In the case of `N#C[C@@H]1CCOC[C@H]1n1cc(C(N)=O)c(Nc2ccc3c(c2)C(Cl)=CB(O)O3)n1` (single isomer, unassigned) [Example 43a, 3-[(4-chloro-2-hydroxy-1,2-benzoxaborinin-6-yl)amino]-1-[trans-4-cyanotetrahydro-2H-pyran-3-yl]pyrazole-4-carboxamide], the IC50 was less than 10 nM.
With `N#C[C@@H]1CCOC[C@H]1n1cc(C(N)=O)c(Nc2ccc3c(c2)C=CB(O)O3)n1` (single isomer, unassigned) [Example 51a, 1-[trans-4-cyanotetrahydro-2H-pyran-3-yl]-3-[(2-hydroxy-1,2-benzoxaborinin-6-yl)amino]pyrazole-4-carboxamide] the figure was less than 10 nM; with `N#C[C@@H]1CCOC[C@H]1n1cc(C(N)=O)c(Nc2cc(Cl)c3c(c2)COB3O)n1` (single isomer, unassigned) [Example 52a, 3-((7-chloro-1-hydroxy-1,3-dihydrobenzo[c][1,2]oxaborol-5-yl)amino)-1-(trans-4-cyanotetrahydro-2H-pyran-3-yl)-1H-pyrazole-4-carboxamide], less than 10 nM; with `CC1=C(C)c2cc(Nc3nn([C@@H]4COCC[C@H]4C#N)cc3C(N)=O)cc(C)c2OB1O` (single isomer, unassigned) [Example 23a, 1-[trans-4-cyanotetrahydro-2H-pyran-3-yl]-3-[(2-hydroxy-3,4,8-trimethyl-1,2-benzoxaborinin-6-yl)amino]pyrazole-4-carboxamide], less than 10 nM.
With `N#C[C@@H]1CCOC[C@H]1n1cc(C(N)=O)c(Nc2cc(Cl)c3c(c2)C=CB(O)O3)n1` (single isomer, unassigned) [Example 13b, 3-[(8-chloro-2-hydroxy-1,2-benzoxaborinin-6-yl)amino]-1-[trans-4-cyanotetrahydro-2H-pyran-3-yl]pyrazole-4-carboxamide] the figure was less than 10 nM; with `CC1=C(C)c2cc(Nc3nn(C4COCCC4C#N)cc3C(N)=O)cc(C)c2OB1O` (stereo not drawn) [Example 23, 1-(trans-4-cyanotetrahydropyran-3-yl)-3-[(2-hydroxy-3,4,8-trimethyl-1,2-benzoxaborinin-6-yl)amino]pyrazole-4-carboxamide], less than 10 nM.
As for `CC1=CB(O)Oc2c(C)cc(Nc3nn([C@@H]4COCC[C@H]4C#N)cc3C(N)=O)cc21` (single isomer, unassigned) [Example 47b, 1-[trans-4-cyanotetrahydro-2H-pyran-3-yl]-3-[(2-hydroxy-4,8-dimethyl-1,2-benzoxaborinin-6-yl)amino]pyrazole-4-carboxamide], the figure is less than 10 nM.
As to `CC(C)(C)C1=Cc2cc(Nc3nn([C@@H]4CCC[C@H]4C#N)cc3C(N)=O)ccc2OB1O` (relative stereo) [Example 20, 3-[(3-tert-butyl-2-hydroxy-1,2-benzoxaborinin-6-yl)amino]-1-(trans-2-cyanocyclopentyl)pyrazole-4-carboxamide], the IC50 was in the range of 10 to 50 nM.
As for `Cc1c(Nc2nn([C@@H]3COCC[C@H]3C#N)cc2C(N)=O)ccc2c1C=CB(O)O2` (single isomer, unassigned) [Example 17a, 1-[trans-4-cyanotetrahydro-2H-pyran-3-yl]-3-[(2-hydroxy-5-methyl-1,2-benzoxaborinin-6-yl)amino]pyrazole-4-carboxamide], the figure is greater than 50 nM.
